Results reported in patent EP0213526A1, “Spergualin-related compounds, a process for their preparation and their use as medicaments” (MICROBIAL CHEMISTRY RESEARCH FOUNDATION, priority 1985, dated 1987).

Experiments:
mouse leukemia L-1210 [1] = details: healing experiments, from Japanese Patent Public Disclosure No. 48975/1982; cited from earlier work
sarcoma 180 (S-180) = details: healing experiments, from Japanese Patent Public Disclosure No. 48975/1982; cited from earlier work
mouse leukemia FL-4 = details: healing experiments, from Japanese Patent Public Disclosure No. 48975/1982; cited from earlier work
[2] = test system: Gram-negative microorganisms; details: background statement; cited from earlier work
Ehrlich cancer = details: healing experiments, from Japanese Patent Public Disclosure No. 48975/1982; cited from earlier work
[3] = test system: Gram-positive microorganisms; details: background statement; cited from earlier work
mouse leukemia L-1210 [4] = test: Therapeutic effects on cancer in mice (life prolongation, mouse leukemia L-1210); format: in vivo; details: 6 consecutive days, male BDF1 mice; for Percent life pro-longation: 10^5 L-1210 cells i.p., T/C x 100; for Percent survival for 30 days: groups of four, L-1210
Experimental: Male BDF1 mice (5-wk old) in groups comprising four heads were inoculated intraperitoneally with 10^5 cells of mouse leukemia L-1210. Starting on the day of inoculation, a selected sample dissolved in a physiological saline solution was administered intraperitoneally to each animal for 6 consecutive days on a one-dose-per-day basis. After keeping the animals for 30 days, the life-prolongation effect of sample was determined form the following formula:
Life-prolongation effect = T/C x 100 = (Average number of days of survival of the treated group / Average number of days of survival of the control group) x 100.

[5] = Dose 0.20 mg/kg/day intraperitoneally
[6] = Dose 0.39 mg/kg/day intraperitoneally
[7] = Dose 0.78 mg/kg/day intraperitoneally
[8] = Dose 1.56 mg/kg/day intraperitoneally
[9] = Dose 3.13 mg/kg/day intraperitoneally
[10] = Dose 6.25 mg/kg/day intraperitoneally
[11] = Dose 12.5 mg/kg/day intraperitoneally
[12] = Dose 25 mg/kg/day intraperitoneally
[13] = Dose 50 mg/kg/day intraperitoneally

SMILES | Percent life pro-longation (mouse leukemia L-1210 [4]; [5]) [%] | Percent survival for 30 days (mouse leukemia L-1210 [4]; [5]) | Percent life pro-longation (mouse leukemia L-1210 [4]; [6]) [%] | Percent survival for 30 days (mouse leukemia L-1210 [4]; [6]) | Percent life pro-longation (mouse leukemia L-1210 [4]; [7]) [%] | Percent survival for 30 days (mouse leukemia L-1210 [4]; [7]) | Percent life pro-longation (mouse leukemia L-1210 [4]; [8]) [%] | Percent survival for 30 days (mouse leukemia L-1210 [4]; [8]) | Percent life pro-longation (mouse leukemia L-1210 [4]; [9]) [%] | Percent survival for 30 days (mouse leukemia L-1210 [4]; [9]) | Percent life pro-longation (mouse leukemia L-1210 [4]; [10]) [%] | Percent survival for 30 days (mouse leukemia L-1210 [4]; [10]) | Percent life pro-longation (mouse leukemia L-1210 [4]; [11]) [%] | Percent survival for 30 days (mouse leukemia L-1210 [4]; [11]) | Percent life pro-longation (mouse leukemia L-1210 [4]; [12]) [%] | Percent survival for 30 days (mouse leukemia L-1210 [4]; [12]) | Percent life pro-longation (mouse leukemia L-1210 [4]; [13]) [%] | Percent survival for 30 days (mouse leukemia L-1210 [4]; [13]) | other results
N=C(N)NCCCC[C@H](O)CC(=O)NC(O)C(=O)NCCCCNCCCN (stereo partly drawn) [Spergualin] |  |  |  |  |  |  |  |  |  |  |  |  |  |  |  |  |  |  | therapeutic and life-prolonging effects (mouse leukemia L-1210 [1]): appreciable therapeutic and life-prolonging effects; therapeutic and life-prolonging effects (sarcoma 180 (S-180)): appreciable therapeutic and life-prolonging effects; therapeutic and life-prolonging effects (mouse leukemia FL-4): appreciable therapeutic and life-prolonging effects; effect of inhibiting the growth [2]: inhibiting the growth; therapeutic and life-prolonging effects (Ehrlich cancer): appreciable therapeutic and life-prolonging effects; effect of inhibiting the growth [3]: inhibiting the growth
N=C(N)Nc1ccc(CCCC(=O)NC(O)C(=O)NCCCCNCCCN)cc1 (racemic) [Compound 1, 10-{N-[4-(4-guanidinophenyl)butanoyl]-α-hydroxyglycyl}-1,5,10-triazadecane] | 110 | 0/4 | 120 | 0/4 | 155 | 0/4 | 197 | 0/4 | > 335 | 2/4 | > 363 | 2/4 | > 401 | 3/4 | > 356 | 2/4 | 0 | 0/4 | 
COC(NC(=O)CCCc1ccc(NC(=N)N)cc1)C(=O)NCCCCNCCCN (racemic) [Compound 2, 10-{N-[4-(4-guanidinophenyl)butanoyl]-α-methoxyglycyl}-1,5,10-triazadecane] | 104 | 0/4 | 111 | 0/4 | 118 | 0/4 | 171 | 0/4 | > 368 | 3/4 | > 403 | 3/4 | > 417 | 4/4 | > 417 | 4/4 | 0 | 0/4 | 
